Series [1] concerns Vaccinia Virus. It is filed as cell-based.
Series [2] deals with cowpox virus. It is filed as cell-based.
Series [3] deals with stationary HFF cells. The series can be described thus: Neutral Red Uptake Assay (toxicity). In kind it is cell-based, human.
In series [4] the test system is cowpox. Also noted: species or system female BALB/c mice. As to conditions: mouse, in vivo.
Series [5] concerns Vaccinia Virus. In kind it is cell-based. This is another data set of the same source.
The test system of series [6] is HFF cells.
Series [7] has as its system cowpox virus. In kind it is cell-based. This is another data set of the same source.

Values after ≈ are worked out from the molar mass of the structure shown. Where two headings read alike, the source gives them in different places.

Here are results for three compounds from US6596771B2, “Drugs for treating viral infections” (priority 2001, dated 2003).

As to `O=S(=O)([N-]S(=O)(=O)NC12CC3CC(CC(C3)C1)C2)NC12CC3CC(CC(C3)C1)C2.[Na+]` [Example 11], in series [1], the EC50 worked out at 0.04 microgram/mL and the EC90 was 0.11 microgram/mL. In series [2], this compound gave an EC50 of 0.50 microgram/mL and an EC90 of 2.10 microgram/mL. The compound further gave a CC50 in series [3] of 87.6 microgram/mL. Besides, the “Lung titer on Day 3” value in series [4] is 6.6±1.3.
On to `O=S(=O)(NC12CC3CC(CC(C3)C1)C2)NS(=O)(=O)NC12CC3CC(CC(C3)C1)C2` [Example 1, N,N^1-Bis(tricyclo[3.3.1.1^3,7]dec-1-yl)imidodisulfamide], for which the EC90 in series [1] turned out to be 1.40 microgram/mL; in series [5], 0.15 µg/mL (≈ 0.338 µM). This compound also displayed a CC50 in series [6] of 77.80 microgram/mL.
Turning to `Nc1ccn(C[C@@H](CO)OCP(=O)(O)O)c(=O)n1` [CDV, reference compound], in series [7], the “concentration at which active in these cells” value is “about 12.0 microgram microgram/mL”. Further, the EC50 in series [1] was 1.80 microgram/mL; in series [2], 2.30 microgram/mL.
